Assay results published in US10301353B2, “Co-crystal of carfilzomib with maleic acid and process for the preparation of pure carfilzomib” (DR. REDDY'S LABORATORIES LIMITED, priority 2014, dated 2019).

Tests used:
[1] = storage stability of amorphous carfilzomib; format: physicochemical; conditions: at 2-8° C.
Experimental: Carfilzomib amorphous form obtained according to the process of the present application is stable at 2-8° C. for extended periods, i.e., more than 3 month.

[2] = tested on: solid and hematologic tumor cells; conditions: cited from earlier work
proteasome = conditions: in animals; cited from earlier work
[3] = tested on: models of multiple myeloma, hematologic, and solid tumors; conditions: in animals; cited from earlier work

Row | stable for extended periods [1] | SMILES | activity in vitro in tumor cells [2] | proteasome activity in blood and tissue (proteasome) | tumor growth [3]
1 | more than 3 month | CC(C)C[C@H](NC(=O)[C@H](CCc1ccccc1)NC(=O)CN1CCOCC1)C(=O)N[C@@H](Cc1ccccc1)C(=O)N[C@@H](CC(C)C)C(=O)[C@@]1(C)CO1 [Carfilzomib amorphous form] | – | – | –
2 | – | CC(C)C[C@H](NC(=O)[C@H](CCc1ccccc1)NC(=O)CN1CCOCC1)C(=O)N[C@@H](Cc1ccccc1)C(=O)N[C@@H](CC(C)C)C(=O)[C@@]1(C)CO1 [Carfilzomib, (2S)—N—((S)-1-((S)-4-methyl-1-((R)-2-methyloxiran-2-yl)-1-oxopentan-2-ylcarbamoyl)-2-phenylethyl)-2-((S)-2-(2-morpholinoacetamido)-4-phenylbutanamido)-4-methylpentanamide] | antiproliferative and proapoptotic activities | inhibited proteasome activity | delayed tumor growth
